Values after ≈ are worked out from the molar mass of the structure shown.
What was measured:
[1] = system: Pleurochrysis roscoffensis; assay: Microalgal adhesion assay (chlorophyll a); assay type: cell-based; details: Chrysotila roscoffensis, 120 h, 5 days incubation, 10–0.01 μg/mL tested, read-out: MIC against the adhesion (A) of microalgae, P. roscoffensis
Source text: (§1) Cyprid larvae of B. improvisus were reared in a laboratory cultivating system at Tjärnö Marine Biological Laboratory, University of Gothenburg, Sweden, as previously described by Berntsson et al. ([2000]). Four pure, but non-axenic, marine microalgae (obtained from Algobank, Caen, France) and 10 marine bacterial strains were used (Table 1) as representative microfoulers. These strains represent fouling species encountered in both estuarine and marine environments (Moodie et al. [2017b]). The bacteria were grown at 26 °C in a marine medium, composed of 0.5% peptone (neutralized bacteriological peptone, Oxoid Ltd.) in filtered (Whatman 1001–270, pore size 11 μm) natural seawater. Microalgae were grown and maintained at 22 °C in F/2 medium.
(§2) Microplates containing the compounds in ranging concentrations (10–0.01 μg/mL) were prepared from MeOH stock solutions as previously described (Trepos et al. [2014]; Moodie et al. [2017a]). Microalgal stock solutions were prepared using the chlorophyll analysis methodology of Chambers et al. ([2011]). The pretreated microplate wells were treated with 100 μL of the algal stock solutions (0.1 mg chlorophyll a/mL). The plates were then incubated for 5 days at 20 °C under constant light exposure (140 μmol m^−2 s^−1). Both microalgal adhesion and growth inhibition were measured. Growth was determined by analysis of liberated chlorophyll a after centrifugation and methanol addition. Chlorophyll a was quantified fluorometrically. MIC value for algal growth was defined as the lowest concentration yielding a decrease in chlorophyll a content. Microalgal adhesion was determined in an analogous manner where the non-attached algal cells were removed prior to methanol addition (100 μL), releasing chlorophyll a from the remaining algal biofilms. The MIC for adhesion was defined as the lowest compound concentration causing a reduction in […]. Toxicity experiments were performed in an analogous manner to those described for the bacterial assays.

Vibrio proteolyticus = assay: Bacterial growth assay (OD 630 nm); assay type: cell-based; details: 48 h incubation, 10–0.01 μg/mL tested, read-out: MIC against the growth of marine bacteria, V.p.
Source text: as §1
(§3) Bacterial strain adhesion and growth were determined according to the methods of Thabard et al. ([2011]). Bacterial suspensions (100-μL aliquots, 2 × 10^8 colony forming units/mL) were aseptically added to the compound containing microplate wells (10–0.01 μg/mL), and the plates were incubated for 48 h at 26 °C. Media only was used as a blank. Bacterial growth was monitored spectroscopically at 630 nm. The minimal inhibitory concentration (MIC) for bacterial growth was defined as the lowest concentration which results in a decrease in OD. After 48-h incubation time, the bacterial adhesion assay was conducted by emptying the wells and rinsing with sterile seawater (100 μL) to remove non-attached cells, and air-drying at room temperature. The residual bacterial biofilm was stained with aqueous crystal violet (100 μL, 0.3% v/v) and the OD measured at 595 nm (Sonak and Bhosle [1995]). […] If inhibition was observed, toxicity tests were conducted. The well contents were transferred into a flask of fresh media, and growth was measured after 5 days of additional incubation. The mode of action was deemed biostatic if an increase in OD was measured at 595 nm (Moodie et al. [2017a]).

Shewanella putrefaciens = assay: Bacterial growth assay (OD 630 nm); assay type: cell-based; details: 48 h incubation, 10–0.01 μg/mL tested, read-out: MIC against the growth of marine bacteria, S.p.
Source text: as §1, §3

Vibrio carchariae = assay: Bacterial growth assay (OD 630 nm); assay type: cell-based; details: Vibrio harveyi, 48 h incubation, 10–0.01 μg/mL tested, read-out: MIC against the growth of marine bacteria, V.c.
Source text: as §1, §3

Roseobacter litoralis = assay: Bacterial growth assay (OD 630 nm); assay type: cell-based; details: 48 h incubation, 10–0.01 μg/mL tested, read-out: MIC against the growth of marine bacteria, R.l.
Source text: as §1, §3

Vibrio natriegens = assay: Bacterial growth assay (OD 630 nm); assay type: cell-based; details: 48 h incubation, 10–0.01 μg/mL tested, read-out: MIC against the growth of marine bacteria, V.n.
Source text: as §1, §3

[2] = system: Pseudoalteromonas elyakovii; assay: Bacterial growth assay (OD 630 nm); assay type: cell-based; details: 48 h incubation, 10–0.01 μg/mL tested, read-out: MIC against the growth of marine bacteria, P.e.
Source text: as §1, §3

Vibrio aestuarianus = assay: Bacterial growth assay (OD 630 nm); assay type: cell-based; details: 48 h incubation, 10–0.01 μg/mL tested, read-out: MIC against the growth of marine bacteria, V.a.
Source text: as §1, §3

Halomonas aquamarina = assay: Bacterial growth assay (OD 630 nm); assay type: cell-based; details: Vreelandella aquamarina, 48 h incubation, 10–0.01 μg/mL tested, read-out: MIC against the growth of marine bacteria, H.a.
Source text: as §1, §3

Vibrio harveyi = assay: Bacterial growth assay (OD 630 nm); assay type: cell-based; details: 48 h incubation, 10–0.01 μg/mL tested, read-out: MIC against the growth of marine bacteria, V.h.
Source text: as §1, §3

[3] = system: Pleurochrysis roscoffensis; assay: Microalgal growth assay (chlorophyll a); assay type: cell-based; details: Chrysotila roscoffensis, 120 h, 5 days incubation, 10–0.01 μg/mL tested, read-out: MIC against the growth (G) of microalgae, P. roscoffensis
Source text: as §1, §2

Halamphora coffeaeformis = assay: Microalgal growth assay (chlorophyll a); assay type: cell-based; details: Halamphora coffeiformis, 120 h, 5 days incubation, 10–0.01 μg/mL tested, read-out: MIC against the growth (G) of microalgae, H. coffeaformis
Source text: as §1, §2

Cylindrotheca closterium = assay: Microalgal growth assay (chlorophyll a); assay type: cell-based; details: 120 h, 5 days incubation, 10–0.01 μg/mL tested, read-out: MIC against the growth (G) of microalgae, C. closterium
Source text: as §1, §2

Porphyridium purpureum = assay: Microalgal growth assay (chlorophyll a); assay type: cell-based; details: 120 h, 5 days incubation, 10–0.01 μg/mL tested, read-out: MIC against the growth (G) of microalgae, P. purpureum
Source text: as §1, §2

marine bacteria [4] = assay: Bacterial adhesion assay, whole panel of ten strains; assay type: cell-based, 10 marine bacterial strains; details: tested up to 10 μg/mL, active = MIC of 10 μg/mL or below
Source text: as §1, §3

[5] = system: Balanus improvisus cyprid larvae; assay: whole plant or invertebrate; assay type: in vivo; details: for IC50: Amphibalanus improvisus, 120 h, read-out: IC50 (cyprid settlement inhibition); for Toxicity (%) (dead cyprids): Balanus improvisus, in vivo, 5 days, 5 μg/mL
Source text: as §1
Stock solutions of compounds in DMSO were serially diluted in untreated polystyrene Petri dishes containing 10 mL of filtered (0.2 μm) seawater, affording final concentrations ranging from 0.1 to 10 μg/mL. Freshly molted balanide cyprids (18–22) were added to each Petri dish and incubated at ambient temperature (20–25 °C) for 5 days. Cyprid metamorphosis was assessed using a dissecting microscope where the numbers of juvenile settled, free-swimming, and dead cyprids were noted. Initial compound screening was conducted at 5 μg/mL, and full IC50 determination was performed only on compounds displaying > 50% inhibition at that concentration. The IC50 was defined as the concentration preventing 50% of the cyprid settlement on the Petri dish surface. Each concentration was replicated four times (n = 4), and dishes containing 0.1% of DMSO were used as negative controls. The commercial AF agent Sea-nine™ was employed as a positive control.

marine bacteria [6] = assay: Bacterial growth assay, whole panel of ten strains; assay type: cell-based, 10 marine bacterial strains; details: tested up to 10 μg/mL
Source text: as §1, §3

[7] = system: Balanus improvisus cyprid larvae; details: B. improvisus; ref Moodie et al. ([2017b]); cited from earlier work

| SMILES | MIC [1] [mg/L] | MIC (Vibrio proteolyticus) [mg/L] | MIC (Shewanella putrefaciens) [mg/L] | MIC (Vibrio carchariae) [mg/L] | MIC (Roseobacter litoralis) [mg/L] | MIC (Vibrio natriegens) [mg/L] | MIC [2] [mg/L] | MIC (Vibrio aestuarianus) [mg/L] | MIC (Halomonas aquamarina) [mg/L] | MIC (Vibrio harveyi) [mg/L] | MIC [3] [mg/L] | MIC (Halamphora coffeaeformis) [mg/L] | MIC (Cylindrotheca closterium) [mg/L] | MIC (Porphyridium purpureum) [mg/L] | MIC / activity against the adhesion of all bacteria tested (marine bacteria [4]) | IC50 [5] [mg/L] | Toxicity (%) (dead cyprids) [5] | MIC / activity against the growth of all bacteria tested (marine bacteria [6]) | IC50 (cyprid settlement inhibition) [7] [mg/L] |
| --- | --- | --- | --- | --- | --- | --- | --- | --- | --- | --- | --- | --- | --- | --- | --- | --- | --- | --- | --- |
| COc1ccc(CC(=NO)c2ccc(O)c(O)c2)cc1 [Compound 10, 1-(3,4-Dihydroxyphenyl)-1-Hydroxyimino-2-(4′-Methoxyphenyl)-Ethane] | 0.1 (≈ 0.366 µM) | > 10 | > 10 | > 10 | > 10 | 10 (≈ 36.6 µM) | 1 (≈ 3.66 µM) | > 10 | > 10 | > 10 | 1 (≈ 3.66 µM) | 1 (≈ 3.66 µM) | 10 (≈ 36.6 µM) | > 10 | ^aCompounds 7, 8, 10, 11, and 12 were inactive against the adhesion of all bacteria tested up to 10 μg/mL | 5 (≈ 18.3 µM) | 2.6 | – | – |
| COc1cc(C(Cc2ccc(O)cc2)=NO)ccc1O [Compound 12, 1-(3-methoxy-4-hydroxyphenyl)-1-hydroxyimino-2-(4’-hydroxyphenyl)-ethane] | – | > 10 | 0.1 (≈ 0.366 µM) | > 10 | 1 (≈ 3.66 µM) | > 10 | 10 (≈ 36.6 µM) | > 10 | 0.1 (≈ 0.366 µM) | > 10 | 10 (≈ 36.6 µM) | 10 (≈ 36.6 µM) | > 10 | > 10 | – | 2.5 (≈ 9.15 µM) | 3.5 | active against four strains | – |
| COc1ccc(CC(=NO)c2ccc(OC)c(OC)c2)cc1 [Compound 9, 1-(3,4-dimethoxyphenyl)-1-hydroxyimino-2-(4’-methoxyphenyl)-ethane] | 10 (≈ 33.2 µM) | > 10 | 0.1 (≈ 0.332 µM) | > 10 | > 10 | > 10 | > 10 | > 10 | 10 (≈ 33.2 µM) | > 10 | > 10 | 10 (≈ 33.2 µM) | 10 (≈ 33.2 µM) | > 10 | displayed inhibitory activities | 1.5 (≈ 4.98 µM) | 0.0 | – | – |
| COc1cc(O)cc(CCc2cccc(O)c2)c1 [Compound 1, batatasin-III] | – | – | – | – | – | – | – | – | – | – | – | – | – | – | – | – | – | – | 1.0 (≈ 4.09 µM) |

From article PMC5889410, “Design and Biological Evaluation of Antifouling Dihydrostilbene Oxime Hybrids” (Marine Biotechnology (New York, N.y.), 2018)
